# In ChEMBL document CHEMBL1153832, “Identification and characterization of UK-201844, a novel inhibitor that interferes with human immunodeficiency virus type 1 gp160 processing” (Antimicrob Agents Chemother, 2007):
# Active and inactive are the calls of the source. The calls are words filed in the database; no cut-off is given here.
# Legend:
# [1] = system: Human immunodeficiency virus 1; assay: Ratio of EC50 for recombinant HIV1 NL4-3 bearing envelope with G354E, D474N substitutions to EC50 for parental HIV1 NL4-3; assay type: functional
# [2] = system: Human immunodeficiency virus 1; assay: Ratio of EC50 for recombinant HIV1 NL4-3/3BNt chimeric virus to EC50 for parental HIV1 NL4-3 virus; assay type: functional
# [3] = system: Human immunodeficiency virus 1; assay: Antiviral activity against HIV1 NL4-3 infected in human C8166 cells; assay type: functional, organism-based
# [4] = Cytotoxicity against human PM1 cells after 6 days by XTT assay; assay type: cell-based
# [5] = system: Human immunodeficiency virus 1; assay: Antiviral activity against HIV1 NL4-3 infected in human MT2 cells assessed as inhibition of viral p24 antigen level at 1.0 uM by Western blot; assay type: functional; conditions: Human immunodeficiency virus 1, NL4-3, MT2
# [6] = system: Human immunodeficiency virus 1; assay: Antiviral activity against recombinant HIV1 NL4/3BFL chimeric virus infected in human MT2 cells assessed as inhibition of virus-induced CPE; assay type: functional, organism-based; conditions: Human immunodeficiency virus 1, NL4/3BFL
# [7] = system: Human immunodeficiency virus 1; assay: Antiviral activity against parental HIV1 NL4-3 infected in human MT2 cells by virus production assay; assay type: functional, organism-based; conditions: Human immunodeficiency virus 1, NL4-3, MT2
# [8] = system: Human immunodeficiency virus 1; assay: Antiviral activity against recombinant HIV1 NL4/3B5'Env chimeric virus infected in human MT2 cells assessed as inhibition of virus-induced CPE; assay type: functional, organism-based; conditions: Human immunodeficiency virus 1, NL4/3B5'Env
# [9] = system: Human immunodeficiency virus 1; assay: Ratio of EC50 for recombinant HIV1 NL4-3 bearing envelope with S162N, N302Y substitutions to EC50 for parental HIV1 NL4-3; assay type: functional
# [10] = system: Human immunodeficiency virus 1; assay: Ratio of EC50 for recombinant HIV1 NL4-3/3B5'Env chimeric virus to EC50 for parental HIV1 NL4-3 virus; assay type: functional
# [11] = system: Human immunodeficiency virus 1; assay: Ratio of EC50 for recombinant HIV1 NL4-3 bearing envelope with S162N, N302Y, G354E, V372E, D474N substitutions to EC50 for parental HIV1 NL4-3; assay type: functional
# [12] = system: Human immunodeficiency virus 1; assay: Ratio of EC50 for recombinant HIV1 NL4-3 bearing envelope with V372E substitution to EC50 for parental HIV1 NL4-3; assay type: functional
# [13] = Therapeutic index, ratio of CC50 for human PM1 cells to EC50 for HIV1 NL4-3; assay type: cell-based; conditions: read-out: TI
# [14] = system: Human immunodeficiency virus 1; assay: Antiviral activity against HIV1 3B infected in human MT2 cells assessed as inhibition of virus-induced cytopathic effect after 6 days by XTT assay; assay type: functional, organism-based; conditions: Human immunodeficiency virus 1, 3B, MT2, 144 h
# [15] = system: Human immunodeficiency virus 1; assay: Antiviral activity against recombinant HIV1 NL4-3 bearing envelope with G354E, V372E, D474N substitutions infected in human MT2 cells by virus production assay; assay type: functional, organism-based
# [16] = system: Human immunodeficiency virus 1; assay: Antiviral activity against recombinant HIV1 NL4/3BNt chimeric virus infected in human MT2 cells assessed as inhibition of virus-induced CPE; assay type: functional, organism-based; conditions: Human immunodeficiency virus 1, NL4/3BNt
# [17] = system: Human immunodeficiency virus 1; assay: Antiviral activity against HIV1 NL4/3BFL chimeric virus transfected in HEK293 cells assessed as inhibition of viral envelope gp160/gp120 processing at 15 uM by Western blot; assay type: functional; conditions: Human immunodeficiency virus 1, NL4/3BFL
# [18] = system: Human immunodeficiency virus 1; assay: Antiviral activity against HIV1 NL4-3 infected in human MT2 cells assessed as inhibition of viral p24 antigen level at 15 uM by Western blot; assay type: functional; conditions: Human immunodeficiency virus 1, NL4-3, MT2
# [19] = system: Human immunodeficiency virus 1; assay: Ratio of EC50 for recombinant HIV1 NL4-3 bearing envelope with V372E, D474N substitutions to EC50 for parental HIV1 NL4-3; assay type: functional
# Furin (Homo sapiens) = Furin (Homo sapiens) (UniProt P09958); assay: Inhibition of human recombinant furin up to 100 uM
# Sequence of Furin (Homo sapiens) (P09958 whole entry): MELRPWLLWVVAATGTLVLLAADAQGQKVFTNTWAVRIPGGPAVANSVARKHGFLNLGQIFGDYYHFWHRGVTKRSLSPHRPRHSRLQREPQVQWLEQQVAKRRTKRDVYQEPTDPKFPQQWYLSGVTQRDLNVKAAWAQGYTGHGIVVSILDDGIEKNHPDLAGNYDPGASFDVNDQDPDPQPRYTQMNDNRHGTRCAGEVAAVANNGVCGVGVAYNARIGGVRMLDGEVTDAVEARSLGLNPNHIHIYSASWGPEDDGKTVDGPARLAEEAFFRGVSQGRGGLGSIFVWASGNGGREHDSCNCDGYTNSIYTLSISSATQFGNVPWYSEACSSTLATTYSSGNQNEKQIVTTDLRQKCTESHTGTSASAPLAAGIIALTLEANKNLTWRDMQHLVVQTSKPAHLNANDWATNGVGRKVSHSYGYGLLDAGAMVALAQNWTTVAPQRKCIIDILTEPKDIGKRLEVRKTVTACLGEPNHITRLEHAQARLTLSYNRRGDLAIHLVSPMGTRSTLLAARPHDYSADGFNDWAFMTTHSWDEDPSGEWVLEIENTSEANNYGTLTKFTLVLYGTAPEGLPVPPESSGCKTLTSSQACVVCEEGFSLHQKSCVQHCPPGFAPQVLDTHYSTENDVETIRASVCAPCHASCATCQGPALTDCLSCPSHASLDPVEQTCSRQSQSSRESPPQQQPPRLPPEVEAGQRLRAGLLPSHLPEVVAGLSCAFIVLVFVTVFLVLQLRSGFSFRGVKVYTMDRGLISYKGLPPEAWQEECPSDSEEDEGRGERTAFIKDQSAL
# [20] = system: Human immunodeficiency virus 1; assay: Inhibition of HIV1 NL4-3 proteins incorporation into virions transfected in HEK293 cells assessed as unprocessed gp160 Env protein at 15 uM by Western blot; assay type: functional, organism-based
# [21] = system: Human immunodeficiency virus 1; assay: Antiviral activity against HIV1 clade-B clinical isolate up to its cytotoxic concentration; assay type: functional, organism-based
# [22] = system: Human immunodeficiency virus 1; assay: Ratio of EC50 for recombinant HIV1 NL4-3 bearing envelope with G354E, V372E, D474N substitutions to EC50 for parental HIV1 NL4-3; assay type: functional
# [23] = system: Human immunodeficiency virus 1; assay: Antiviral activity against HIV1 NL4-3 transfected in HEK293 cells assessed as inhibition of viral envelope gp160 processing at 7.5 uM by Western blot; assay type: functional; conditions: Human immunodeficiency virus 1, NL4-3, HEK293
# [24] = system: Human immunodeficiency virus 1; assay: Antiviral activity against recombinant HIV1 NL4-3 bearing envelope with G354E substitution infected in human MT2 cells by virus production assay; assay type: functional, organism-based
# [25] = system: Human immunodeficiency virus 1; assay: Antiviral activity against HIV1 bearing HIV1 NL4-3 envelope assessed as reduction in viral envelope-mediated membrane fusion by cell-based fusion assay; assay type: functional, organism-based
# [26] = system: Human immunodeficiency virus 1; assay: Antiviral activity against HIV1 NL4-3 infected in human PM1 cells assessed as inhibition of viral p24 antigen production after 5 days; assay type: functional, organism-based; conditions: Human immunodeficiency virus 1, NL4-3, PM1, 120 h
# [27] = system: Human immunodeficiency virus 1; assay: Antiviral activity against HIV1 NL4-3 infected in human CEM-T4 cells; assay type: functional, organism-based
# [28] = system: Human immunodeficiency virus 1; assay: Antiviral activity against HIV1 Ba-L infected in human PM1 cells assessed as inhibition of viral p24 antigen production after 5 days; assay type: functional, organism-based; conditions: Human immunodeficiency virus 1, Ba-L, PM1, 120 h
# [29] = system: Human immunodeficiency virus 1; assay: Ratio of EC50 for recombinant HIV1 NL4-3/3BCt chimeric virus to EC50 for parental HIV1 NL4-3 virus; assay type: functional
# [30] = system: Human immunodeficiency virus 1; assay: Antiviral activity against HIV1 NL4-3 transfected in HEK293 cells assessed as inhibition of infectious virus production at 15 uM; assay type: functional; design: scale not given: the % may be the effect or the level left
smiles,measurement,setting,value
NC(=O)C(c1ccccc1)(c1ccccc1)[C@H]1CCCN(CCc2ccc3c(c2)CCO3)C1,fold change (FC),[1],>31
same,fold change (FC),[2],1
same,EC50,[3],Active
same,CC50 at 144 h,[4],47 µM
same,inhibition at 1 µM,[5],44%
same,EC50,[6],> 32 µM
same,EC50,[7],1.03 µM
same,EC50,[8],> 32 µM
same,fold change (FC),[9],8.3
same,fold change (FC),[10],>25
same,fold change (FC),[11],>31
same,fold change (FC),[12],0.9
same,selectivity ratio,[13],17
same,EC50,[14],32 µM
same,EC50,[15],> 32 µM
same,EC50,[16],1.2 µM
same,inhibition at 15 µM,[17],2%
same,inhibition at 15 µM,[18],100%
same,fold change (FC),[19],>31
same,Activity,Furin (Homo sapiens),inactive
same,Activity,[20],Active
same,Activity,[21],inactive
same,fold change (FC),[22],>31
same,inhibition at 7.5 µM,[23],99%
same,EC50,[24],0.9 µM
same,Activity,[25],inactive
same,EC50,[26],2.7 µM
same,EC50,[27],Active
same,EC50,[28],24 µM
same,fold change (FC),[29],4
same,Activity,[30],100%
